Source: patent publication US6673798B2, “PDGF receptor kinase inhibitory compounds, their preparation, purification and pharmaceutical compositions including same” (Yissum Research Development Company of the Hebrew …, priority 1999, dated 2004)

Legend:
neointimal formation = settings: controlled local delivery, rat carotid balloon injury model; cited from earlier work
[1] = system: fibroblast growth factor-dependent DNA synthesis; settings: relative to PDGF-dependent DNA synthesis; cited from earlier work
porcine SMC = assay: Inhibition of SMC proliferation and recovery (cell count); type: cell-based; settings: 10 μM; for mean reduction in SMC count by day 3: compared to DMSO treated control cells; for reversibility of the inhibitory effect on SMC proliferation: cultures washed on day 7, recovery counted day 13
Description: Smooth muscle cells (SMC) were obtained under aseptic conditions from porcine abdominal aortas. Each artery was cut open and the endothelial surface mechanically scraped. The vessels were then cut into 2 mm^2 fragments which were placed in culture dishes with Dulbecco's modified Eagle's medium (DMEM) supplemented with 15% (v/v) fetal calf serum (FCS), 100 u/ml penicillin, 100 μg/ml streptomycin, and […]. The tissue fragments were then placed in an incubator at 37° C. under 9% CO2 atmosphere until SMC outgrowth was detected (typically within 3-7 days). […] For experiments testing the effect of tyrphostins on growth inhibition and recovery (see below), SMC from passages 1-3 were replated in 15 mm wells pretreated with 3 μg/cm^2 fibronectin (Biological Industries, Kibbutz Beit Haemek, Israel) at 15,000 cells/well.
Inhibition of cell proliferation and recovery: Monolayer cell growth inhibition and recovery experiments were repeated 3 or 4 times. Each experiment was performed in triplicate. Approximately 15,000 cells (SMC or PAEC) in 1 ml of culture medium supplemented with either 15% FCS (SMC) or 10% FCS (PAEC) were seeded on day 0 in 15 mm-wells precoated with fibronectin (SMC) or uncoated (PAEC). Cultures were treated with 10 μM of the following tyrphostin compounds: AG2033, AC2034, AG2043 and AG2044 (for SMC) or AG2033 (for PAEC) dissolved in 0.1% DMSO on days 1 and 3. On day 7, cultures were washed and the cells allowed to recover. Typically cells were counted on days 3 and 6 for inhibition, and on day 13 for recovery. The medium supplemented with serum (DMEM for SMC and Ham's F12 for PAEC) was changed every other day throughout the experiment.
Cells were grown in the presence of the specified tyrphostins and were counted on days 3, 6 and 13 in culture. On day 7 the cultures were washed and the cells allowed to recover. […] The inhibitory effect of all three compounds was reversible, and the cells resumed normal growth response as soon as the treatment with the tyrphostins was withdrawn.

[2] = target: epidermal growth factor receptor (Homo sapiens, UniProt P00533); settings: cited from earlier work
Chain of epidermal growth factor receptor (P00533 25-1210, species assumed): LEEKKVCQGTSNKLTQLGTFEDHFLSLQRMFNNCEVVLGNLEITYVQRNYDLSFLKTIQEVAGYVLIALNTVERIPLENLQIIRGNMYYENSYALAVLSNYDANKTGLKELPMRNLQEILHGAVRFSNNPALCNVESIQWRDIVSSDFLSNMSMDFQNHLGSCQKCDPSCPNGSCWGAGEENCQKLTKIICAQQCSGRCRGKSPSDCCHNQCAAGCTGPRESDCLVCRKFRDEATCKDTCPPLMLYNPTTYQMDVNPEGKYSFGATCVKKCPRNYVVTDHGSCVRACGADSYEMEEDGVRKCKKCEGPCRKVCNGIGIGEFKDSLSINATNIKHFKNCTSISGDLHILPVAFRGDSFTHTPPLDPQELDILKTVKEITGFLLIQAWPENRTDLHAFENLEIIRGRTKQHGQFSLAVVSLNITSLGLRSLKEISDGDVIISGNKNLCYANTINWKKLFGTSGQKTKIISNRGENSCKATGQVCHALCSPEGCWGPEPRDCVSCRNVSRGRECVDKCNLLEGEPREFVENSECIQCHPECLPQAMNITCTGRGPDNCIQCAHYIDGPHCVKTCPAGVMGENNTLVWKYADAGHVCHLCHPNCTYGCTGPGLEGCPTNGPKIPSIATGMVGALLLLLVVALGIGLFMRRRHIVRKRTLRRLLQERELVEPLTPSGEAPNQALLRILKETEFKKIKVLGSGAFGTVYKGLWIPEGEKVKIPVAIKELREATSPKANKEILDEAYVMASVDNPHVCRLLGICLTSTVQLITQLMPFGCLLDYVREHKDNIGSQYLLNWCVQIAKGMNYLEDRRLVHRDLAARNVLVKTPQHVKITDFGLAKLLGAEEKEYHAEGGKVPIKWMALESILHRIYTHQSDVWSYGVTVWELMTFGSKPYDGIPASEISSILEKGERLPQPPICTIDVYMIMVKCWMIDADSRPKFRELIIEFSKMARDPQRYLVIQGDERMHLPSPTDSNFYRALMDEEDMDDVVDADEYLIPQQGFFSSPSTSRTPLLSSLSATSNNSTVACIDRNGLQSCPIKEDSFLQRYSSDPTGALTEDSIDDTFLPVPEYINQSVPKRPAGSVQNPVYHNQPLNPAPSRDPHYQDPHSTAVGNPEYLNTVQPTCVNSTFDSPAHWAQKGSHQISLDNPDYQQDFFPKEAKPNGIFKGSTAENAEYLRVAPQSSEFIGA

[3] = system: DNA synthesis stimulated by insulin, by epidermal growth factor, or by a combination of both; settings: cited from earlier work
[4] = system: sis-transfected NIH 3T3 cells; settings: cited from earlier work
PDGF β-receptor [5] = target: T1, PDGF β-receptor (Homo sapiens, UniProt P09619); settings: cited from earlier work
T1 sequence (P09619 33-1106): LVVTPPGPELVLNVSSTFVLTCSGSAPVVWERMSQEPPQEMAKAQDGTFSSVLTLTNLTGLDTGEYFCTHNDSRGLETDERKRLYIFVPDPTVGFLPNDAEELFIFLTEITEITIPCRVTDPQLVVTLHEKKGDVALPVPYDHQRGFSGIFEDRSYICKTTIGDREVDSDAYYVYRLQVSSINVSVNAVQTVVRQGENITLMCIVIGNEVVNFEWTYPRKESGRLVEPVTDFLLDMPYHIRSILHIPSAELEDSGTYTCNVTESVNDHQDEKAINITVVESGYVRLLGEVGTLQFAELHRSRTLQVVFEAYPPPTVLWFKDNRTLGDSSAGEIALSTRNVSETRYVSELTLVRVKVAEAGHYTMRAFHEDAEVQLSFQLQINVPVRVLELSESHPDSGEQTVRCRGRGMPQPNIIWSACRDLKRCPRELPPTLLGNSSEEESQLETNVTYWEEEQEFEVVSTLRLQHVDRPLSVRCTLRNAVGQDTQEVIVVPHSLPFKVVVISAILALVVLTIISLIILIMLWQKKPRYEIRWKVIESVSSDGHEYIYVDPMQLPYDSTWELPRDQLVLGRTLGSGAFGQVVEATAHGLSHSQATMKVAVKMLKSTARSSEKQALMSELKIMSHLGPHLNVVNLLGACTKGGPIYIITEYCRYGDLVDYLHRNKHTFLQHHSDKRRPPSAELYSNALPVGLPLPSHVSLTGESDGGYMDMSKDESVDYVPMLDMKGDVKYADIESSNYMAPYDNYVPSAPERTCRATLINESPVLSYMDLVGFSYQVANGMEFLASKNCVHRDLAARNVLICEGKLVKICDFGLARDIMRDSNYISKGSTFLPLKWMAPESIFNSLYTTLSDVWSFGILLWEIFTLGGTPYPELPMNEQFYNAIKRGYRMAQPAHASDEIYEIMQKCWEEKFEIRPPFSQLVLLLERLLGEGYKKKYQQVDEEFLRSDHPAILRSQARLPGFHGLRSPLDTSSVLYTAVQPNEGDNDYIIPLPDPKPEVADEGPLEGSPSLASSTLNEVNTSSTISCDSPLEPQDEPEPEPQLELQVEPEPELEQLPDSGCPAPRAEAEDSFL

[6] = target: vascular endothelial growth factor receptor KDR (Homo sapiens, UniProt P35968); settings: cited from earlier work
[7] = system: src-transformed NIH 3T3 cells; settings: cited from earlier work
[8] = system: porcine aortic endothelial cells; settings: cited from earlier work
[9] = target: stem cell factor receptor (c-Kit) (Homo sapiens, UniProt P10721); settings: cited from earlier work
Chain of stem cell factor receptor (c-Kit) (P10721 26-976): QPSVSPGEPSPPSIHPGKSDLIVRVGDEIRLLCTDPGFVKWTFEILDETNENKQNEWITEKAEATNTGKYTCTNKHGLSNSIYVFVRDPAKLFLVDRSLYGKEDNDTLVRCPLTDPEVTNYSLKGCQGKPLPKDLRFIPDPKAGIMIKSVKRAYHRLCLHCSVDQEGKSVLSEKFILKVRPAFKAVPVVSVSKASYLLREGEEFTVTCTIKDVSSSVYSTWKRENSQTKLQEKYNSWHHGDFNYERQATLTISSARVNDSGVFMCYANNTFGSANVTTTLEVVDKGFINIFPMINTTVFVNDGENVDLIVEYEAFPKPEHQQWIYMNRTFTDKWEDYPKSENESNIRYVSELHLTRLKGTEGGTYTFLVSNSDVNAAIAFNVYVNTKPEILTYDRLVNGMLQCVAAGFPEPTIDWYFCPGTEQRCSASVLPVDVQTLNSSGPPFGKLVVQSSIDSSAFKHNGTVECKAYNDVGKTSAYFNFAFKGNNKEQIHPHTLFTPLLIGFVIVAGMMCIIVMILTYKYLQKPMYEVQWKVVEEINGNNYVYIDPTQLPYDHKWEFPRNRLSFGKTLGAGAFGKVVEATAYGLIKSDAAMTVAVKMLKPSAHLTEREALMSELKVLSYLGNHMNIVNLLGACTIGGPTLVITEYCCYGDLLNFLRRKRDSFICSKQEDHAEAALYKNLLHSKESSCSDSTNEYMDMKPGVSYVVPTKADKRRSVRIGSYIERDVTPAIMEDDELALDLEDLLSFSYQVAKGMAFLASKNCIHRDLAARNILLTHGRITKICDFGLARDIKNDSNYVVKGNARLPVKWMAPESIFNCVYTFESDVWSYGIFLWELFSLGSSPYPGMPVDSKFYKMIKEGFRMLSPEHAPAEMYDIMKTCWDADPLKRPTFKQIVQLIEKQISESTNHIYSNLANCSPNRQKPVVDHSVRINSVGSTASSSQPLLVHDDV

human PDGF α-receptor = human PDGF α-receptor (Homo sapiens, UniProt P16234); settings: cited from earlier work
p60c-src(F527) = target: T2, p60c-src(F527) (Gallus gallus, UniProt P00523, Y527F); settings: immunoprecipitated from src-transformed NIH 3T3 cells; cited from earlier work
T2 construct: host or cells: src-transformed NIH 3T3 cells (immunoprecipitate)

PDGFβR = target: T3, PDGFβR (Mus musculus, UniProt P05622); assay: PDGF-induced PDGFβR autophosphorylation in intact Swiss 3T3 cells (FIG. 8); type: cell-based; settings: compared with AG2033 at 1 μM
T3 construct: A preparation of purified PDGFR from Swiss 3T3 cell membranes was used; endogenous in cells
T3 sequence (P05622 32-1098): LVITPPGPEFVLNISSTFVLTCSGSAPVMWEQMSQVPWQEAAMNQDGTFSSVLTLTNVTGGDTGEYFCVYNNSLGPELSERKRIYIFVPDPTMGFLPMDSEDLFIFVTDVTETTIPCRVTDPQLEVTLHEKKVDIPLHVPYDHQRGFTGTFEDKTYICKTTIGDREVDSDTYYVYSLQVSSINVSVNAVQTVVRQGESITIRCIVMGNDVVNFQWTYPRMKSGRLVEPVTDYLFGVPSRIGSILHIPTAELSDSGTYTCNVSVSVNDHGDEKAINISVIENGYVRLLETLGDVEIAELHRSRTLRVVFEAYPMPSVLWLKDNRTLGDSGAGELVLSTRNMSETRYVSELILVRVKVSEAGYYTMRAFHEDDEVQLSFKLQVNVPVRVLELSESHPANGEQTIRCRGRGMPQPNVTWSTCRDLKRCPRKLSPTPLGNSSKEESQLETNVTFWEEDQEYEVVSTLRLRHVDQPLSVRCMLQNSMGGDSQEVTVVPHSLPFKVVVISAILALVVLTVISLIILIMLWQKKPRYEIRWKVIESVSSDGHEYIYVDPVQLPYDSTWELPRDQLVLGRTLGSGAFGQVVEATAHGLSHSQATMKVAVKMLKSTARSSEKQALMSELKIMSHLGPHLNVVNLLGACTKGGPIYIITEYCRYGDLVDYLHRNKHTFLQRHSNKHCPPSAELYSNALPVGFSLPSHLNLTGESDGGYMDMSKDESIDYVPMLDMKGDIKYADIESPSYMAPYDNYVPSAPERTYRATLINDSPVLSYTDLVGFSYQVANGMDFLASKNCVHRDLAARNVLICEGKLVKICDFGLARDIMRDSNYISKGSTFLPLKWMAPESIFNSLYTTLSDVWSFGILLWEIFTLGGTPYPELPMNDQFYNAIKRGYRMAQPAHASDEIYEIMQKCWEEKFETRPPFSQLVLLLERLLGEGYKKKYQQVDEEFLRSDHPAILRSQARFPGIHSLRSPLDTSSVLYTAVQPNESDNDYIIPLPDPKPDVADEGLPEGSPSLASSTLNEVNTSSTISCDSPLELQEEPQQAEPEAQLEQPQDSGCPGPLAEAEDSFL
Description: Kinase reactions, using an isolated PDGFβR preparation, in the presence of 0.03-3 μM tyrphostin, were conducted, utilizing [γ-^32P]ATP as probe. Densitometric evaluation, relative to control lacking the tyrphostin inhibitor (100%), results in the percent autokinase activity, presented in Table 8 and in the dose-response curves for the purified transoid isomers AG2033 (FIG. 6) and AG2043 (FIG. 7). Further comparison between the resulting autoradiogrms for each pair of geometrical isomers AG2033 and AG2034 (upper panel); AG2043 and AG2044 (lower panel), for their inhibitory activity towards PDGF-induced PDGFβR autophosphorylation (concentration range: 0.1-10 μM) in intact cells is presented in FIG. 8. […] Similar potency relation exists between the AG2043 and AG2044 isomers.

PDGF β-receptor [10] = target: T1, PDGF β-receptor; assay: PDGF-induced PDGFR autophosphorylation in intact PAEC cells; type: cell-based; set-up: expressed in transfected cells; host or cells: porcine aortic endothelial cells (PAEC), stably transfected; settings: intact PAEC cells expressing PDGFR, PDGF-BB stimulated; read-out: IC50 (50% inhibition of phosphorylation) PDGFR
Description: Effect of tyrphostins on PDGF-induced PDGFR autophosphorylation in intact PAEC cells: PAEC cells, transfected with either PDGFR or KDR, cultivated in Ham's F-12 medium supplemented with 10% fetal calf serum (FCS), were synchronized for 20 hours in a medium containing 0.01% BSA. […] After stimulation, the cells were solubilized in Nonidet P-40 (1%) containing lysis buffer.
The analysis of PDGF β-receptor phosphorylation was performed as follows. Cell lysates were subjected to immunoprecipitation using the PDGF β-receptor specific antiserum R3 [5]. The precipitates were subjected to polyacrylamide (7.5%) gel electrophoresis in presence of sodium dodecyl sulfate (SDS-PAGE) and were thereafter blotted onto a nitrocellulose membrane (Hybond C-EXTRA, Amersham). Phosphorylated proteins were detected by immunoblotting using the horseradish-peroxidase conjugated phosphotyrosine antibodies PY20 and 4G10 (Upstate Biotechnology), followed by application of secondary horseradish-peroxidase conjugated goat-anti-mouse antibody and chemoluminescence-based detection (ECL, Amersham) and autoradiography.
The data in Table 9 presents the differential potencies of the various compounds with respect to PDGFR and KDR, as was performed on intact PAEC cells expressing these receptors (see experimental methods section above).

Row | SMILES | blocking effect on fibroblast growth factor-dependent DNA synthesis [1] | mean reduction in SMC count by day 3 (porcine SMC) [%] | reversibility of the inhibitory effect on SMC proliferation (porcine SMC) | effect on epidermal growth factor receptor autophosphorylation [2] | effect on DNA synthesis stimulated by insulin, EGF or a combination of both [3] | IC50 (PDGF β-receptor [10]) [µM] | melting point [°C] | other results
1 | CC(C)(C)c1cc(C=C(C#N)C#N)cc(C(C)(C)C)c1O [AG17] | – | – | – | – | – | – | – | inhibition of neointimal formation (neointimal formation): effectively inhibits
2 | Cc1cc2ncc(-c3ccccc3)nc2cc1C [AG1295] | over an order of magnitude weaker blocking effect | 61 | completely reversible | no effect | weak effects | – | – | –
3 | COc1cc2ncc(-c3ccccc3)nc2cc1OC [AG1296] | over an order of magnitude weaker blocking effect | – | – | no effect | weak effects | – | – | effect on transformed phenotype of sis-transfected NIH 3T3 cells [4]: reverses the transformed phenotype; inhibition of signalling of human PDGF β-receptor (PDGF β-receptor [5]): potently inhibits; effect on autophosphorylation of KDR [6]: no effect; effect on src-transformed NIH 3T3 cells [7]: no effect; effect on DNA synthesis induced by VEGF [8]: no effect; inhibition of signalling of stem cell factor receptor (c-Kit) [9]: potently inhibits; inhibition of signalling of human PDGF α-receptor (human PDGF α-receptor): potently inhibits; effect on activity of kinase p60c-src(F527) (p60c-src(F527)): no effect
4 | Cc1nc2cc3ncc(-c4ccccc4)nc3cc2n1C [AG2034, 1,2-dimethyl-7-phenyl imidazolo[5,4-g]quinoxaline] | – | – | – | – | – | 10 | 218 | concentration giving similar (marked) inhibition of PDGFβR autophosphorylation in intact cells (PDGFβR): 10 to 30 µM
5 | Cc1nc2cc3ncc(-c4cccs4)nc3cc2n1C [AG2044, 1,2-dimethyl-7-(2-thiophene) imidazolo[5,4-g]quinoxaline] | – | 84 | completely reversible | – | – | 5 | 218 | –
